Reference: patent US20230404998A1, “Combination Therapies for Treating Cancer” (ASCENTAGE PHARMA (SUZHOU) CO., LTD., priority 2020, published 2023)
Marks after values point to notes of the source that are not given here.

Experiments:
[1] = test system: human umbilical vein endothelial cells; assay: Antiproliferative effects on human umbilical vein endothelial cells; format: cell-based
VEGFR1 = VEGFR1 (Homo sapiens, UniProt P17948); assay: Cell-free kinase assay VEGFR1; format: biochemical
[2] = test system: Y253H/T315I orthotopic tumor model; assay: In vivo efficacy, Y253H/T315I orthotopic tumor model; set-up: species or system mouse; settings: ABL001 60 mg/kg, Ponatinib 20 mg/kg, HQP1351 20 mg/kg
Experimental: (§1) In vivo efficacy was evaluated using the syngeneic mouse model derived from BaF3 cells with T315I and/or compound mutations. Tumor models were established by intravenously injecting tumor cells (1×10^5/mouse) into the caudal vein under sterile conditions. Mice were randomized into control and treatment groups with 8-10 mice per group and start the treatment from the second day post inoculation. The animal body weights were measured twice a week. The antitumor activity curves of test articles were plotted with the treatment time (day) on the X-axis, and corresponding survival rate on the Y-axis. A Log-rank (Mental-cox) test was employed to analyze the statistical significance of any difference between the treatment group and the control group. Prism version 7 (GraphPad Software Inc., San Diego, CA) was used for all statistical analysis and for graphic presentation.

[3] = test system: E255V/T315I orthotopic tumor model; assay: In vivo efficacy, E255V/T315I orthotopic tumor model; set-up: species or system mouse; settings: ABL001 60 mg/kg, Ponatinib 20 mg/kg, HQP1351 20 mg/kg
Experimental: as §1

Chain of VEGFR1 (P17948 27-1338, species assumed): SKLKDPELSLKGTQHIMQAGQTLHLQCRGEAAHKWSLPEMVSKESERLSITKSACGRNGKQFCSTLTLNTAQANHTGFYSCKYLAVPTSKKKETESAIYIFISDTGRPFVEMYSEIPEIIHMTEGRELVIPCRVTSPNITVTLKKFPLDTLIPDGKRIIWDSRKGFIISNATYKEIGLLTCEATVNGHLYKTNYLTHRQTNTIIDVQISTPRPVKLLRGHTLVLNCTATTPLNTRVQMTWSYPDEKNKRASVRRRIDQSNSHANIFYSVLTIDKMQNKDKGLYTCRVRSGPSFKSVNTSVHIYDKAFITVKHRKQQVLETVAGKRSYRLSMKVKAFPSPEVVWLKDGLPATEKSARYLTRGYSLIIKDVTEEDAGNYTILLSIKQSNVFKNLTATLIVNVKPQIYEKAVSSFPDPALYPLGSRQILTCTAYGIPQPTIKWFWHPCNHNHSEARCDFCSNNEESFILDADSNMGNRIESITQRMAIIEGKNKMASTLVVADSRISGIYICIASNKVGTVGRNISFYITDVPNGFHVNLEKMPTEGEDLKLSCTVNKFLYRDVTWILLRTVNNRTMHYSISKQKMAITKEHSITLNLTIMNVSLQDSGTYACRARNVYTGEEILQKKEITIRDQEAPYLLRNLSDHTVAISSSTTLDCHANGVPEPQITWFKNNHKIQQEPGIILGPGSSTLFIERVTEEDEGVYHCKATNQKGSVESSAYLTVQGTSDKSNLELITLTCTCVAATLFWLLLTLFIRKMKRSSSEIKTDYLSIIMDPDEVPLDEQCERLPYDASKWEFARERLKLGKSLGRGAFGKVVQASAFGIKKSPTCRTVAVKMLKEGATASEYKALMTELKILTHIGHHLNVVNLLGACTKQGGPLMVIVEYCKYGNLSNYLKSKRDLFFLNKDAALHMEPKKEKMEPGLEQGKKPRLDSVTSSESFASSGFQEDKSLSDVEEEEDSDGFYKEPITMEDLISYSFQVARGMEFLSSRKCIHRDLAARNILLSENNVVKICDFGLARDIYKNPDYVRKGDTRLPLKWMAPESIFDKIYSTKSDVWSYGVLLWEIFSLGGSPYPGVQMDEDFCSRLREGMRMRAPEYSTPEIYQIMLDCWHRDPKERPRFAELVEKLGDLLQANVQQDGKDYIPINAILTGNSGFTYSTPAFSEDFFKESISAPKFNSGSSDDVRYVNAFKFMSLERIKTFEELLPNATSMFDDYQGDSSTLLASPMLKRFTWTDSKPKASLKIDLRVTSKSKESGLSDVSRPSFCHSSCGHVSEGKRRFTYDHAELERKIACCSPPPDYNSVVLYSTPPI

SMILES: Cc1ccc(C(=O)Nc2ccc(CN3CCN(C)CC3)c(C(F)(F)F)c2)cc1C#Cc1cnc2[nH]ncc2c1 [HQP1351, 3-(2-(1H-pyrazolo[3,4-b]pyridin-5-yl)ethynyl)-4-methyl-N-(4-((4-methylpiperazin-1-yl)methyl)-3-(trifluoromethyl)phenyl)-benzamide]
- Antiproliferative effects compared to lenvatinib [1]: more potent antiproliferative effects
- IC50 (VEGFR1): 4.2 nM
- Median survival [2]: 18.5
- Survival prolongation (%) [2]: 8.82%
- Survive/Total @ 24 [2]: 0/8
- Median survival [3]: 27.0****
- Survival prolongation (%) [3]: 28.57%
- Survive/Total @ D26 [3]: 0/10
